We go through five compounds from US20230113609A1, “SSTR5 ANTAGONISTS” (Kallyope, Inc., priority 2019, published 2023).

A word on the IC50: it is the concentration at which inhibition is half-maximal. For orientation: bioavailability means dose-corrected exposure relative to a reference, in per cent.

The target in data set [1] is T1, human SSTR5 (Homo sapiens, UniProt P35346).
T1 construct: expressed in transfected cells
Description: Inositol phosphate accumulation assay (IP1 HTRF, antagonist mode). The data set is classed as cell-based. To be noted: CHO-K1 cells co-expressing human SSTR5 with Gqi5, SST28 agonist at concentration generating 90% of full activation. Summed up: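 CHO-K1 cells stably co-expressing human SSTR5 and chimeric Gqi5 were pre-incubated with compound 15 minutes at 37° C, then stimulated with SST28 (30 nM as added, about EC90) for 90 minutes. IP1 read by HTRF (665/620 nm). % inhibition normalized to Max/Min controls; IC50 and maximal inhibition from 4-parameter fit.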
(In general: TR-FRET usually uses a lanthanide donor and a delayed reading to cut background.)

Data set [2] is described as follows: Oral bioavailability of the compounds after oral dosing in rat. To be noted: in vivo, IV 1 mg/kg, PO 5 mg/kg, vehicle 5% DMSO + 30% PEG400 + 65% water. The procedure:
Oral bioavailability of the compounds was determined in Sprague Dawley rats (Compound 90) or Wistar Han rats (Compound 81). The table below summarizes the results. Each compound was dosed intravenously (IV) at 1 mg/kg and orally (PO) 5 mg/kg using the respective vehicles listed below. The compounds display low (<10%) oral bioavailability (F%).

SMILES strings stand for the structures.

T1 sequence (P35346 whole entry): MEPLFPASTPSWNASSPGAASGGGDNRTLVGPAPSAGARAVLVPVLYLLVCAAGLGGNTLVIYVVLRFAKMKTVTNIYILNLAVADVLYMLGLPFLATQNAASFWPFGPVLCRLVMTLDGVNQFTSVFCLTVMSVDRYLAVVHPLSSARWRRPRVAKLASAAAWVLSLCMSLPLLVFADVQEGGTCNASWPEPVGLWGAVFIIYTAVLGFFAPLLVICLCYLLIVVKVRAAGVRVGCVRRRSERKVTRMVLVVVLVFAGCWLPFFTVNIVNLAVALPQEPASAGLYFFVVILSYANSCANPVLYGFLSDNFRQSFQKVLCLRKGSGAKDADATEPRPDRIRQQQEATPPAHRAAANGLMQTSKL

`CCOc1cc(-c2ccc(F)cc2)c(C2CC2)cc1CN1CCC2(CC1)CN(c1ccc(S(=O)(=O)NCCOCCO)cc1)C(=O)O2` [Example 81, 4-(8-((2-cyclopropyl-5-ethoxy-4′-fluoro-[1,1-biphenyl]-4-yl)methyl)-2-oxo-1-oxa-3,8-diazaspiro[4.5]decan-3-yl)-N-(2-(2-hydroxyethoxy)ethyl)benzenesulfonamide]: in data set [1], the IC50 is ≤ 100 nM. The bioavailability in data set [2] (Wistar Han rats) was 7%.

With `CCOc1cc(-c2ccc(F)cn2)c(C2CC2)cc1CN1CCC2(CC1)CN([C@H]1CC[C@](C)(C(=O)NCCOCCO)CC1)C(=O)O2` [compound 90], in data set [1], the IC50 was ≤ 100 nM. In addition, the bioavailability in data set [2] (Sprague Dawley rats) stood at 2.6%.

For the compound `CCOc1cc(C(=O)OC)c(C2CC2)cc1CN1CCN(C(=O)Nc2ccc(C(=O)NC[C@H](O)[C@@H](O)[C@H](O)[C@H](O)CO)cc2)CC1` [compound 93, methyl 2-cyclopropyl-5-ethoxy-4-[[4-[[4-[[(2S,3R,4R,5R)-2,3,4,5,6-pentahydroxyhexyl]carbamoyl]phenyl]carbamoyl]piperazin-1-yl]methyl]benzoate], in data set [1], the IC50 is 1000 to 5000 nM.

Take `CCOc1cc(-c2ccc(F)cc2)c(C2CC2)cc1CN1CCN(C(=O)Oc2ccc(C(=O)NC[C@H](O)[C@@H](O)[C@H](O)[C@H](O)CO)cc2)CC1` [compound 94]: the 50% inhibitory concentration (IC50) in data set [1] is ≤ 100 nM.

For the compound `CCOc1cc(C#N)c(C2CC2)cc1CN1CCN(C(=O)Oc2ccc(C(=O)NCCCC(=O)NCCO)cc2)CC1` [compound 95, [4-[[4-(2-hydroxyethylamino)-4-oxo-butyl]carbamoyl]phenyl]4-[(4-cyano-5-cyclopropyl-2-ethoxy-phenyl)methyl]piperazine-1-carboxylate], in data set [1], the IC50 was > 5000 nM.
